Measured values reported in patent publication US11390609B2, “Rho-associated protein kinase inhibitor, pharmaceutical composition comprising same, and preparation method and use thereof” (BEIJING TIDE PHARMACEUTICAL CO., LTD., priority 2017, dated 2022).

Experiments:
ROCK2 = ROCK2 (Homo sapiens, UniProt O75116); assay: ROCK2 kinase IC50 assay (CISBIO HTRF KinEASE-STK S2 kit); type: biochemical; settings: incubated at room temperature for 2 hours
Procedure, shortened: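 HTRF KinEASE-STK S2 format with recombinant ROCK2 (1.4 ng per well), STK-S2 substrate and ATP from 5× working solutions of 1.5 μM each, run 2 h at room temperature. Nine-point dilutions from 10000 nM top concentration; 665/615 nm emission ratio normalised to no-compound and no-kinase controls, curve-fitted for IC50.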

ROCK1 = ROCK1 (Homo sapiens (Human), UniProt Q13464); assay: ROCK1 kinase IC50 assay (biological test method similar to the ROCK2 assay); type: biochemical
Sequence of ROCK1 (Q13464 whole entry, species assumed): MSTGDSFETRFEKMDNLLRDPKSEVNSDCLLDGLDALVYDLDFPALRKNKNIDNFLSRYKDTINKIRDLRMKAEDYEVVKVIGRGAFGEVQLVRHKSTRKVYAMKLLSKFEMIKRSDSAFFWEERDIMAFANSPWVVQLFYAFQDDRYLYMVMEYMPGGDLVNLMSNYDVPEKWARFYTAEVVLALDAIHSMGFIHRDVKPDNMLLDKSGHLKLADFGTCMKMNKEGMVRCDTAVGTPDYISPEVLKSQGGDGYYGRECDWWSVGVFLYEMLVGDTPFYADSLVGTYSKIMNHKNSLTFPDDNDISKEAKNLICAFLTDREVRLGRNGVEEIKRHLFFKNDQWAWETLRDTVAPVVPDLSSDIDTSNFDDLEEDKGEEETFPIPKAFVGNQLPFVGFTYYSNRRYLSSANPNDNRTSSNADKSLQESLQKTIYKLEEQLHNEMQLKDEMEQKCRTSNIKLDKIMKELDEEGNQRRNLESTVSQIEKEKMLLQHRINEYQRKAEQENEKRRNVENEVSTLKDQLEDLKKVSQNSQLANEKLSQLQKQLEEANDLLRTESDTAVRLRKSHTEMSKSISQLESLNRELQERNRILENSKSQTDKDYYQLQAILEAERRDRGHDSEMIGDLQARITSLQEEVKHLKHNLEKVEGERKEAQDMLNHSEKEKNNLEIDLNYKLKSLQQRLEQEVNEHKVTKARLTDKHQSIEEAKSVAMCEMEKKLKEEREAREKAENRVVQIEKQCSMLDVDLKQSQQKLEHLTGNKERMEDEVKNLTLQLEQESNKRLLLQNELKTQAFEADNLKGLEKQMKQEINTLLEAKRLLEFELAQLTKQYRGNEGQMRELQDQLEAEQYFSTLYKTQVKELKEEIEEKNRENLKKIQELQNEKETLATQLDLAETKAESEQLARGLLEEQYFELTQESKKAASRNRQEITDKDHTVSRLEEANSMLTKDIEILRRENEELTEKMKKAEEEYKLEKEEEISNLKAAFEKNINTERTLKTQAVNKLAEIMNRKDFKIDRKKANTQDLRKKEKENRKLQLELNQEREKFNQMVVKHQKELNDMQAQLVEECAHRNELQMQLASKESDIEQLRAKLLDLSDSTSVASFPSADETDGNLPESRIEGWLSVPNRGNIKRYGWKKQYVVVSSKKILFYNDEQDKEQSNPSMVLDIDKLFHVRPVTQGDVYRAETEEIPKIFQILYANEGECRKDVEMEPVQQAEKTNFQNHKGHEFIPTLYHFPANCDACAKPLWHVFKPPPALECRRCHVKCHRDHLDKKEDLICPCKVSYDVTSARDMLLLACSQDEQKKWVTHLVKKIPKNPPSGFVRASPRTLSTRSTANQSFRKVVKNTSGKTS
Procedure, shortened: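 HTRF KinEASE-STK S2 assay with the STK-S2 biotinylated substrate and ATP, at 5× working solutions of 1.5 µM each. Kinase reaction with 9-point compound dilutions ran 2 h at room temperature, followed by 1 h streptavidin-XL665/Cryptate detection. The 665/615 nm ratio was normalised to no-compound and no-kinase wells, and IC50 was obtained by curve fitting.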

IC50 (ROCK2) [nM] | IC50 (ROCK1) [nM] | SMILES
111 | 6010 | c1ccc2oc(-c3cc4ccc(-c5nccc(Nc6ccc7[nH]ncc7c6)n5)cc4[nH]3)nc2c1 [TDI01816, N-(2-(2-(benzo[d]oxazol-2-yl)-1H-indol-6-yl]pyrimidin-4-yl)-1H-indazol-5-amine]
75 | > 10000 | c1cc(Nc2ccc(-c3cn[nH]c3)cc2)nc(-c2ccc3cc(-c4nccs4)[nH]c3c2)n1 [TDI01826, N-(4-(1H-pyrazol-4-yl)phenyl)-2-(2-(thiazol-2-yl)-1H-indol-6-yl)pyrimidin-4-amine]
167 | > 10000 | COc1cc(Nc2ccnc(-c3ccc4cc(C(=O)N(C)C)[nH]c4c3)n2)ccc1-c1cn[nH]c1 [TDI01832, 6-(4-((3-methoxy-4-(1H-pyrazol-4-yl)phenyl)ami-no)pyrimidin-2-yl)-N, N-dimethyl-1H-indole-2-carboxamide]
5 | 89 | O=C(NC1CCCN(c2ccncc2)C1)c1cc2ccc(-c3nccc(Nc4ccc5[nH]ncc5c4)n3)cc2[nH]1 (stereo not shown) [TDI01840, 6-(4-((1H-indazol-5-yl)amino)-pyrimidin-2-yl)-N-(1-(pyridin-4-yl)piperidin-3-yl)-1H-indole-2-carboxamide]
11 | 1000 | Cn1c(C(=O)Nc2ccncc2Cl)cc2ccc(-c3nccc(Nc4ccc5[nH]ncc5c4)n3)cc21 [TDI01841, 6-(4-((1H-indazol-5-yl)amino)-pyrimidin-2-yl)-N-(3-chloropyridin-4-yl)-1-methyl-1H-indole-2-carboxamide]
120 | 3000 | CN(C)C(=O)c1cc2ccc(-c3nccc(Nc4ccc(-c5cn[nH]c5)c(F)c4)n3)cc2[nH]1 [TDI01842, 6-(4-((3-fluoro-4-(1H-pyrazol-4-yl)phenyl)ami-no)pyrimidin-2-yl)-N, N-dimethyl-1H-indole-2-carboxamide]
370 | > 10000 | O=C(Nc1ccnnc1)c1cc2ccc(-c3ncc(Cl)c(Nc4ccc5[nH]ncc5c4)n3)cc2[nH]1 [TDI01844, 6-(4-((1H-indazol-5-yl)amino)-5-chloropyrimidin-2-yl)-N-(pyridazin-4-yl)-1H-indole-2-carboxamide]
15 | > 10000 | Cn1c(C(=O)N2CC(F)(F)C2)cc2ccc(-c3nc(Nc4ccc(-c5cn[nH]c5)cc4)c4c(n3)OCCO4)cc21 [TDI01851, (6-(4-((4-(1H-pyrazol-4-yl)phenyl)amino)-6,7-dihydro-[1,4]dioxino[2,3-d]pyrimidin-2-yl)-1-methyl-1H-indol-2-yl)(3,3-difluoroazetidin-1-yl)methanone]
41 | > 10000 | CC(C)NC(=O)N1Cc2ccc(-c3nc(Nc4ccc(-c5cn[nH]c5)cc4)c4occc4n3)cc2C1 [TDI01861, 5-(4-((4-(1H-pyrazol-4-yl)phenyl)amino)furo[3,2-d]pyrimidin-2-yl)-N-isopropylisoindoline-2-carboxamide]
382 | > 10000 | CC(C)NC(=O)c1cc2ccc(-c3nc(Nc4ccc(-c5cn[nH]c5)cc4)c4ccccc4n3)cc2[nH]1 [TDI01862, 6-(4-((4-(1H-pyrazol-4-yl)phenyl)-amino)-quinazolin-2-yl)-N-isopropyl-1H-indole-2-carboxamide]
30 | 3000 | CC(C)NC(=O)c1cc2ccc(-c3nc(Nc4ccc(-c5cn[nH]c5)cc4)c4occc4n3)cc2[nH]1 [TDI01864, 6-(4-((4-(1H-pyrazol-4-yl)phenyl)ami-no)furo[3,2-d]pyrimidin-2-yl)-N-isopropyl-1H-indole-2-carboxamide]
32 | > 10000 | COc1cnc(-c2ccc3cc(C(=O)N(C)CC(F)(F)F)[nH]c3c2)nc1Nc1ccc(-c2cn[nH]c2)cc1 [TDI01868, 6-(4-((4-(1H-pyrazol-4-yl)phenyl)-amino)-5-methoxy-pyrimidin-2-yl)-N-methyl-N-(2,2,2-trifluoroethyl)-1H-indole-2-carboxamide]
46 | > 10000 | c1cnc(-c2cc3ccc(-c4nccc(Nc5ccc(-c6cn[nH]c6)cc5)n4)cc3[nH]2)nc1 [TDI01870, N-(4-(1H-pyrazol-4-yl)phenyl)-2-(2-(pyrimidin-2-yl)-1H-indol-6-yl)pyrimidin-4-amine]
240 | > 10000 | Cn1c(-n2ccnc2)cc2ccc(-c3nccc(Nc4ccc(-c5cn[nH]c5)cc4)n3)cc21 [TDI01876B, 2-(2-(1H-imidazol-1-yl)-1-methyl-1H-indol-6-yl)-N-(4-(1H-pyrazol-4-yl)phenyl)pyrimidin-4-amine]
161 | > 10000 | c1ccc2sc(-c3cc4ccc(-c5nccc(Nc6ccc7[nH]ncc7c6)n5)cc4[nH]3)nc2c1 [TDI01881, N-(2-(2-(benzo[d]thiazol-2-yl)-1H-indol-6-yl)pyrimidin-4-yl)-1H-indazol-5-amine]
8 | 139 | O=C(NC1CCCN(c2ccncc2)C1)c1cc2ccc(-c3nccc(Nc4ccc(-c5cn[nH]c5)cc4)n3)cc2[nH]1 (stereo not shown) [TDI01882, 6-(4-((4-(1H-pyrazol-4-yl)phenyl)-amino)-pyrimidin-2-yl)-N-(1-(pyridin-4-yl)piperidin-3-yl)-1H-indole-2-carboxamide]
26 | > 10000 | O=C(NC1CCN(c2ccncc2Cl)CC1)c1cc2ccc(-c3nccc(Nc4ccc(-c5cn[nH]c5)cc4)n3)cc2s1 [TDI01884, 6-(4-((4-(1H-pyrazol-4-yl)phenyl)-amino)-pyrimidin-2-yl)-N-(1-(3-chloropyridin-4-yl)piperidin-4-yl)benzo[b]-thiophene-2-carboxamide]
49 | > 10000 | Cn1c(C(=O)N2CC(F)(F)C2)cc2ccc(-c3nccc(Nc4ccc5[nH]ncc5c4)n3)cc21 [TDI01906, (6-(4-((1H-indazol-5-yl)amino)pyrimidin-2-yl)-1-methyl-1H-indol-2-yl)(3,3-difluoroazetidin-1-yl)methanone]
6 | > 10000 | COc1cc(Nc2ccnc(-c3ccc4cc(C(=O)N5CC(F)(F)C5)n(C)c4c3)n2)ccc1-c1cn[nH]c1 [TDI01910, (3,3-difluoroazetidin-1-yl)(6-(4-((3-methoxy-4-(1H-pyrazol-4-yl)phenyl)amino)pyrimidin-2-yl)-1-methyl-1H-indol-2-yl)methanone]
44 | > 10000 | COc1cc(Nc2ccnc(-c3ccc4cc(-c5nccs5)[nH]c4c3)n2)ccc1-c1cn[nH]c1 [TDI01912, N-(3-methoxy-4-(1H-pyrazol-4-yl)phenyl)-2-(2-(thiazol-2-yl)-1H-indol-6-yl)pyrimidin-4-amine]
18 | > 10000 | COc1cnc(-c2ccc3cc(C(=O)N4CC(F)(F)C4)n(C)c3c2)nc1Nc1ccc(-c2cn[nH]c2)cc1 [TDI01915, (6-(4-((4-(1H-pyrazol-4-yl)phenyl)amino)-5-methoxypyrimidin-2-yl)-1-methyl-1H-indol-2-yl)(3,3-difluoroazetidin-1-yl)methanone]
165 | > 10000 | Cn1c(C(=O)N2CC(F)(F)C2)cc2ccc(-c3nc(Nc4ccc(-c5cn[nH]c5)cc4)c4ccccc4n3)cc21 [TDI01918, (6-(4-((4-(1H-pyrazol-4-yl)phenyl)amino)quinazolin-2-yl)-1-methyl-1H-indol-2-yl)(3,3-difluoroazetidin-1-yl)methanone]
62 | 4060 | Cn1c(-c2nccs2)cc2ccc(-c3nccc(Nc4ccc(-c5cn[nH]c5)cc4)n3)cc21 [TDI01919]
